Laboratory results published in ChEMBL document CHEMBL6071211, “Invention of VH-937, a Potent HIV-1 Maturation Inhibitor with the Potential for Infrequent Oral Dosing in Humans” (ACS Med Chem Lett, 2024).

Columns and labels:
[1] = Oral bioavailability in rat at 5 mg/kg; type: ADME, organism-based; details: in vivo
[2] = test system: Human immunodeficiency virus 1; assay: Ratio of EC50 for antiviral activity against fully replicating HIV1 harboring Gag V370A/deltaV371 by multicycle assay to EC50 for antiviral activity against fully replicating wild type HIV1 NLRepRluc-P373S by multicycle assay; type: functional
[3] = test system: Human immunodeficiency virus 1; assay: Ratio of EC50 for antiviral activity against fully replicating HIV1 harboring Gag V3621/V370A mutant by multicycle assay to EC50 for antiviral activity against fully replicating wild type HIV1 NLRepRluc-P373S by multicycle assay; type: functional
[4] = AUC (infinity) in Cynomolgus monkey at 5 mg/kg, po; type: ADME, organism-based, Macaca fascicularis; details: in vivo
[5] = Volume of distribution at steady state in Cynomolgus monkey at 2 mg/kg, iv; type: ADME, organism-based, Macaca fascicularis; details: in vivo, read-out: Vdss
[6] = test system: Human immunodeficiency virus 1; assay: In vitro antiviral activity against fully replicating HIV1 harboring Gag deltaV370 mutant by multicycle assay; type: functional, organism-based
[7] = Toxicity in normal healthy human volunteers assessed as adverse effect at 10 mg for 15 days and followed by 30 mg; details: in vivo, 360 h, time 15 day
[8] = Elimination half life in Cynomolgus monkey at 2 mg/kg, iv; type: ADME, organism-based, Macaca fascicularis; details: in vivo, read-out: beta t1/2 (converted)
[9] = test system: Human immunodeficiency virus 1; assay: In vitro antiviral activity against fully replicating pseudotype HIV1 harboring Gag V3621/V370A mutant assessed as maximum percent inhibition by single cycle assay relative to control; type: functional
[10] = molecular target: T1, Cytochrome P450 1A2 (Homo sapiens, UniProt P05177); assay: Inhibition of CYP1A2 (unknown origin); type: ADME
T1 sequence (P05177 whole entry): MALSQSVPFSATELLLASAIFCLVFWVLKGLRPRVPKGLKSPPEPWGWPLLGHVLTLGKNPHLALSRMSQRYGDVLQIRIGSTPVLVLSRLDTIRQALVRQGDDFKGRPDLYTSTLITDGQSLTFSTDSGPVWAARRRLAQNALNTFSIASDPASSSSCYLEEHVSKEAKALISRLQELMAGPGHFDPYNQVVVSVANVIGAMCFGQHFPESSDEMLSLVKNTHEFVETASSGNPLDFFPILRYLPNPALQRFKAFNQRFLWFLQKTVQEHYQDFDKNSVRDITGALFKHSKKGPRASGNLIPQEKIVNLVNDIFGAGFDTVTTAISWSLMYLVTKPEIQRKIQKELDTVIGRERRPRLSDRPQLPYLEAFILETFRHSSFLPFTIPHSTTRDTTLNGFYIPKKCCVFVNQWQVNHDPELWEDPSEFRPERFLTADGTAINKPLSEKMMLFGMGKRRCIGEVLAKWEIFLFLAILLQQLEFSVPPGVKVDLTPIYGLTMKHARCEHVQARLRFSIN

[11] = Elimination half life in dog at 5 mg/kg, po; type: ADME, organism-based, Canis lupus familiaris; details: in vivo, read-out: beta t1/2 (converted)
[12] = AUC (infinity) in dog at 5 mg/kg, po; type: ADME, organism-based, Canis lupus familiaris; details: in vivo
[13] = test system: Human immunodeficiency virus 1; assay: In vitro antiviral activity against fully replicating pseudotype HIV1 harboring Gag T332S/[…]/prR41G mutant assessed as maximum percent inhibition by single cycle assay relative to control; type: functional
[14] = molecular target: T2, Cytochrome P450 2C8 (Homo sapiens, UniProt P10632); assay: Inhibition of CYP2C8 (unknown origin); type: ADME
T2 sequence (P10632 whole entry): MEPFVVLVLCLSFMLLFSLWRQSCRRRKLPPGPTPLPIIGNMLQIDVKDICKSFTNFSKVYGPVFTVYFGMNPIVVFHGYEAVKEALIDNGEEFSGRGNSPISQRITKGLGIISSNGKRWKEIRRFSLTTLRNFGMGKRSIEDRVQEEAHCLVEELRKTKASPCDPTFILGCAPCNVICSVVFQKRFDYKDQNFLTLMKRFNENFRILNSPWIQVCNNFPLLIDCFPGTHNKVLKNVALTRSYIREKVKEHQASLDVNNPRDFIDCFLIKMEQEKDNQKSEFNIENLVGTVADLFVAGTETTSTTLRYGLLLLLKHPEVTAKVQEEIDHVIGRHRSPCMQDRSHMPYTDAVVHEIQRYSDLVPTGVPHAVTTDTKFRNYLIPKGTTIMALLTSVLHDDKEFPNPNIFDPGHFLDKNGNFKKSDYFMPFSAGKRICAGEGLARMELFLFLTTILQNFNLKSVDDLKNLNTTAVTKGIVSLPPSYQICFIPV

[15] = Oral bioavailability in Cynomolgus monkey at 5 mg/kg; type: ADME, organism-based, Macaca fascicularis; details: in vivo
[16] = test system: Human immunodeficiency virus 1; assay: Ratio of EC50 for antiviral activity against fully replicating pseudotype HIV1 harboring to Gag T332S/[…]/prR41G mutant by single cycle assay to EC50 for antiviral activity against fully replicating wild type pseudotype HIV1 NLRepRluc-P373S by single cycle assay; type: functional
[17] = Volume of distribution at steady state in mouse at 1 mg/kg, iv; type: ADME, organism-based; details: in vivo, read-out: Vdss
[18] = test system: Human immunodeficiency virus 1; assay: Ratio of EC50 for antiviral activity against fully replicating HIV1 harboring Gag deltaV370 mutant by multicycle assay to EC50 for antiviral activity against fully replicating wild type HIV1 NLRepRluc-P373S by multicycle assay; type: functional
[19] = Metabolic stability in rat liver microsomes assessed as half life; type: ADME, Microsome
[20] = test system: Human immunodeficiency virus 1; assay: In vitro antiviral activity against fully replicating HIV1 harboring Gag A364V mutant by multicycle assay; type: functional, organism-based
[21] = molecular target: Human immunodeficiency virus type 1 Gag protein (Human immunodeficiency virus 1) (UniProt Q77YG1); assay: Binding affinity to HIV1 wild type Gag mutant assessed as dissociation half life by virus-like particle (VLP) assay
[22] = test system: Human immunodeficiency virus 1; assay: In vitro antiviral activity against fully replicating HIV1 harboring Gag deltaV370 mutant assessed as maximum percent inhibition by multicycle assay relative to control; type: functional
[23] = test system: Human immunodeficiency virus 1; assay: In vitro antiviral activity against fully replicating wild type HIV1 NL4-3; type: functional, organism-based; details: Human immunodeficiency virus 1, NL4-3
[24] = test system: Human immunodeficiency virus 1; assay: In vitro antiviral activity against fully replicating pseudotype HIV1 harboring Gag A364V mutant by single cycle assay; type: functional, organism-based
[25] = test system: Human immunodeficiency virus 1; assay: In vitro antiviral activity against HIV1 subtype F clinical isolate BZ126; type: functional, organism-based; details: Human immunodeficiency virus 1, BZ126
[26] = test system: Human immunodeficiency virus 1; assay: In vitro antiviral activity against fully replicating pseudotype HIV1 harboring Gag A364V mutant assessed as maximum percent inhibition by single cycle assay relative to control; type: functional
[27] = test system: Human immunodeficiency virus 1; assay: Ratio of EC50 for antiviral activity against fully replicating HIV1 harboring Gag A364V mutant by multicycle assay to EC50 for antiviral activity against fully replicating wild type HIV1 NLRepRluc-P373S by multicycle assay; type: functional
[28] = test system: Human immunodeficiency virus 1; assay: Ratio of EC50 for antiviral activity against fully replicating HIV1 harboring to Gag T332S/[…]/prR41G mutant by multicycle assay to EC50 for antiviral activity against fully replicating wild type HIV1 NLRepRluc-P373S by multicycle assay; type: functional
[29] = Clearance in mouse at 1 mg/kg, iv; type: ADME, organism-based; details: in vivo
[30] = test system: Human immunodeficiency virus 1; assay: In vitro antiviral activity against fully replicating wild type HIV1 NLRepRluc-P373S assessed as maximum percent inhibition by multicycle assay relative to control; type: functional
[31] = Elimination half life in rat at 1 mg/kg, iv; type: ADME, organism-based; details: in vivo, read-out: beta t1/2 (converted)
[32] = molecular target: Cytochrome P450 2C9 (Homo sapiens, UniProt P11712); assay: Inhibition of CYP2C9 (unknown origin); type: ADME
Sequence of Cytochrome P450 2C9 (P11712 whole entry): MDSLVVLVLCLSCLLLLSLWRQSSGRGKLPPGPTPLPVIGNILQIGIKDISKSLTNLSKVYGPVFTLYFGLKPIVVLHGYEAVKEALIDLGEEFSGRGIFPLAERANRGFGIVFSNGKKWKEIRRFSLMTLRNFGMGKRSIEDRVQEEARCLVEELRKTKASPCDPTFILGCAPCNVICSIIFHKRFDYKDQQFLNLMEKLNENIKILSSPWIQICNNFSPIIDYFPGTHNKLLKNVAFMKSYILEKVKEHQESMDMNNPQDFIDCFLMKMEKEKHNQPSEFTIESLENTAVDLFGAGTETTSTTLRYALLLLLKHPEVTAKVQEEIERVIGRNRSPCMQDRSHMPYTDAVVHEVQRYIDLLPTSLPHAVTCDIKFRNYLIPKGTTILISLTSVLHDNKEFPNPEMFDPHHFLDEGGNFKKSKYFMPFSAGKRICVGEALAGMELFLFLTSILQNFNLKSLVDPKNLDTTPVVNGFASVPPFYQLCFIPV

C=C(C)[C@@H]1CC[C@]2(NCCN3CCS(=O)(=O)CC3)CC[C@]3(C)[C@H](CC[C@@H]4[C@@]5(C)CC=C(C6=CC[C@](COc7ncccc7C#N)(C(=O)O)CC6)C(C)(C)[C@@H]5CC[C@]43C)[C@@H]12
bioavailability [1]: 45.1% | Ratio EC50 [2]: 2.5 | Ratio EC50 [3]: 1 | AUC(0-inf) [4]: 56.3 µM·h | Vd [5]: 0.3 L/kg | EC50 [6]: 4 nM | Activity [7]: Non-Toxic | half-life [8]: 738 min | Imax [9]: 98% | IC50 [10]: > 4.4 µM | half-life [11]: 1610 min | AUC(0-inf) [12]: 120 µM·h | Imax [13]: 96% | IC50 [14]: > 4.4 µM | bioavailability [15]: 43.5% | Ratio EC50 [16]: 4.8 | Vd [17]: 0.53 L/kg | Ratio EC50 [18]: 2 | half-life [19]: > 120 min | EC50 [20]: 5 nM | T1/2 [21]: 68.8 h | Imax [22]: 97.6% | EC50 [23]: 1.8 nM | EC50 [24]: 32 nM | EC50 [25]: 2 nM | Imax [26]: 57% | Ratio EC50 [27]: 2.5 | Ratio EC50 [28]: 4 | clearance [29]: 0.63 mL/min/kg | Imax [30]: 99.1% | half-life [31]: 516 min | IC50 [32]: > 4.4 µM
